Common to all, as to type: physicochemical, human
Data set [1] is described as follows: GC/MS of blood plasma sample: number of times of freezing and thawing (Table C). The settings on record: for Rate of increase or decrease: detection intensity relative to 1 at 2 times; for Increase or decrease: detection intensity. The method, boiled down:
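Values express detection intensity as a ratio to the 2-cycle freeze-thaw sample (=1), compared with 4, 6 and 10 cycles. Healthy-donor EDTA plasma, cooled at ≤1 min or ≥5 min, spun at 4 °C, 3000 rpm, 15 min. Derivatised by methoxymation/trimethylsilylation; GC-MS/MS in MRM mode with electron ionization.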

Data set [2] in a line: LC/MS of blood plasma sample: time from blood collection to cooling of blood (Table E). Also noted: key to Rate of increase or decrease / Rate of increase or decrease (first value, increase): detection intensity relative to ≤1 min to cooling = 1. The settings on record: for Increase or decrease: detection intensity, blood collection to cooling 5 minutes or more vs 1 minute or less; for Rate of increase or decrease: detection intensity relative to 1 at 1 minute or less, blood collection to cooling 5 minutes.

The nature of data set [3]: GC/MS of serum sample: time from blood collection to centrifugation (Table G). The settings on record: for Rate of increase or decrease: detection intensity relative to 1 at 15 minutes; for Rate of increase or decrease / Increase or decrease: blood collection to centrifugation; for Increase or decrease: detection intensity, after 4 hours vs 15 minutes. The gist of the method:
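Values express detection intensity as a ratio to the sample centrifuged 15 minutes after blood collection (taken as 1). Serum was derivatized by methoxymation and trimethylsilylation, then analysed by electron-ionization GC/MS using multiple reaction monitoring on a BPX5 column ramped from 60 to 330° C.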

Data set [4] can be described thus: GC/MS of serum sample: time from centrifugation to isolation (Table H). Also noted: key to Rate of increase or decrease / Rate of increase or decrease (first value, increase): detection intensity relative to 1 at 30 min centrifugation-to-isolation. The settings on record: for Rate of increase or decrease: detection intensity relative to 1 at 30 minutes; for Increase or decrease: detection intensity. The method, boiled down: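 Values are GC/MS (EI, MRM) detection intensities of methoxymated/trimethylsilylated serum, normalised to 1 for the 30-min sample. Serum was isolated 30 min, 1 h or 6 h after room-temperature centrifugation (3500 rpm, 5 min) of blood.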

The nature of data set [5]: LC/MS of serum sample: time from blood collection to centrifugation (Table J). The conditions noted are these: for Increase or decrease / Time when compound is affected: serum sample, LC/MS; for Increase or decrease: detection intensity vs 15 minutes from blood collection to centrifugation; for Time when compound is affected: time from blood collection to centrifugation, detection intensity changed by 30% or more vs 15 minutes. The gist of the method: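 Detection intensities are expressed relative to 1 for samples centrifuged 15 min after blood collection; centrifugation was at room temperature, 3500 rpm, 5 min. Frozen serum was run by electrospray LC-MS in MRM mode, with 0.1% formic acid water/acetonitrile at 0.25 mL/min on a 40 °C F5 column.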

A short description of data set [6]: LC/MS of serum sample: time from centrifugation to isolation (Table K). Further details: key to Rate of increase or decrease: detection intensity relative to the 30-minute value set as 1. The settings on record: for Rate of increase or decrease: after 6 hours from centrifugation to isolation, detection intensity relative to 1 at 30 minutes; for Increase or decrease / Time when compound is affected: serum sample, LC/MS; for Increase or decrease: detection intensity vs 30 minutes from centrifugation to isolation; for Time when compound is affected: time from centrifugation to isolation, detection intensity changed by 30% or more vs 30 minutes. The method, boiled down: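 Serum left at room temperature 30 min, 1 h or 6 h between centrifugation (3500 rpm, 5 min, room temperature) and isolation, then frozen and analysed by LC/MS (Discovery HS F5-3 column, 40° C., 0.1% formic acid water/acetonitrile, electrospray, MRM). Values are detection intensity relative to the 30-min condition set to 1.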

Data set [7] is described as follows: LC/MS of serum sample: number of times of freezing and thawing (Table M). Further details: key to Rate of increase or decrease: detection intensity relative to 1 at 2 freeze-thaw cycles. The conditions noted are these: for Number of times when compound is affected / Increase or decrease: serum sample, LC/MS; for Number of times when compound is affected: detection intensity changed by 30% or more vs 2 times of freezing and thawing; for Increase or decrease: detection intensity vs 2 times of freezing and thawing. The gist of the method: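 Values are detection intensities relative to serum thawed twice, versus 4, 6 or 10 freeze-thaw cycles. Serum came from blood spun at room temperature, 3500 rpm for 5 minutes. Analysis: electrospray LC/MS in MRM mode, Discovery HS F5-3 column, 40° C, 0.1% formic acid in water and acetonitrile.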

[8] abbreviates: after 4 hours from blood collection to centrifugation, detection intensity relative to 1 at 15 minutes.
Setting [9] is: 4 times of freezing and thawing, relative to 1 at 2 times, different from individual to individual, first value (increase).
The mark [10] stands for this setting: 4 times of freezing and thawing, relative to 1 at 2 times, different from individual to individual, second value (decrease).

`NC(=O)NC1NC(=O)NC1=O` (stereo not drawn) [Allantoin]: the “Rate of increase or decrease” value worked out at 1.42 in data set [1] (freezing and thawing 10 times); 1.67 in data set [3] (after 4 hours); 3.00 in data set [4] (after 6 hours); 1.78 in data set [5] (after 4 hours, relative to 1 at 15 minutes, different from individual to individual, first value (increase)); 0.40 in data set [5] (after 4 hours, relative to 1 at 15 minutes, different from individual to individual, second value (decrease)); 10.46 in data set [6]. Also, the “Rate of increase or decrease” value in data set [7] (4 times of freezing and thawing, detection intensity relative to 1 at 2 times) was 3.27. Moreover, the Increase or decrease result in data set [1] (freezing and thawing 10 times vs 2 times) is “Increase”; in data set [2], “Different from individual”; in data set [3], “Increase”; in data set [4] (after 6 hours vs 30 minutes), “Increase”; in data set [5] it was “Different from individual”; in data set [6], “Increase”. Besides, the Increase or decrease entry in data set [7] is reported as “Increase”. The “Rate of increase or decrease (second value, decrease)” value in data set [2] (different from individual to individual, individuals with decrease, relative to 1 at 1 minute or less, collection to cooling 5 minutes) was determined as 0.40. The “Rate of increase or decrease (first value, increase)” value in data set [2] (different from individual to individual, individuals with increase, relative to 1 at 1 minute or less, collection to cooling 5 minutes) was found to be 1.57. The entries for the “Time when compound is affected” value in data set [5] and in data set [6] were “After 4 hours” and “After 6 hours”, respectively. Further, the “Number of times when compound is affected” value (“Number of times” below) in data set [7] is on record as 4 times.

For the compound `O=c1[nH]cnc2nc[nH]c12` [Hypoxanthine], the “Rate of increase or decrease” value in data set [2] was determined as 7.92; in data set [3] (after 4 hours) it was 2.11; in data set [4] (after 1 hour), 1.36; in data set [5] (setting [8]), 2.24; in data set [6] it was 2.78; in data set [7] (setting [9]), 1.35. Moreover, the “Rate of increase or decrease” value in data set [7] (setting [10]) is reported as 0.61. Moreover, the Increase or decrease result in data set [2] was “Increase”; in data set [3], “Increase”; in data set [4] (after 1 hour vs 30 minutes) it was “Increase”; in data set [5], “Increase”; in data set [6], “Increase”; in data set [7] it was “Different from individual”. For the same compound, the “Time when compound is affected” value in data set [5] was “After 4 hours”; in data set [6], “After 6 hours”. Further, the “Number of times” value in data set [7] was 4 times.

As for `CC(C)(CO)[C@@H](O)C(=O)NCCC(=O)O` [Pantothenic acid], the “Rate of increase or decrease” value was 3.07 in data set [1] (freezing and thawing 4 times); 0.66 in data set [4] (after 1 hour); 1.43 in data set [5] (after 12 hours from blood collection to centrifugation, detection intensity relative to 1 at 15 minutes); 0.55 in data set [7] (10 times of freezing and thawing, detection intensity relative to 1 at 2 times). The Increase or decrease result in data set [1] (freezing and thawing 4 times vs 2 times) was “Increase”; in data set [3], “Different from individual”; in data set [4] (after 1 hour vs 30 minutes), “Decrease”; in data set [5], “Increase”; in data set [7] it was “Decrease”. Besides, the “Rate of increase or decrease (second value, decrease)” value in data set [3] (different from individual to individual, individuals with decrease, relative to 1 at 15 minutes, collection to centrifugation, after 4 hours) is listed as 0.51. For the same compound, the “Rate of increase or decrease (first value, increase)” value in data set [3] (different from individual to individual, individuals with increase, relative to 1 at 15 minutes, collection to centrifugation, after 4 hours) worked out at 1.78. Moreover, in data set [5], the “Time when compound is affected” value is reported as “After 12 hours”. The “Number of times” value in data set [7] turned out to be 10 times.

Regarding `O=c1[nH]c(=O)c2[nH]cnc2[nH]1` [Xanthine], the Increase or decrease entry in data set [1] (freezing and thawing 6 times vs 2 times) is “Different from individual”; in data set [2], “Increase”; in data set [5], “Increase”; in data set [6], “Increase”; in data set [7] it was “Different from individual”. Further, the “Rate of increase or decrease (second value, decrease)” value in data set [1] (different from individual to individual, individuals with decrease, relative to 1 at 2 times, freezing and thawing 6 times) turned out to be 0.51. The “Rate of increase or decrease (first value, increase)” value in data set [1] (different from individual to individual, individuals with increase, relative to 1 at 2 times, freezing and thawing 6 times) stood at 2.21. Besides, the “Rate of increase or decrease” value is on record as 1.47 in data set [2]; 1.92 in data set [5] (setting [8]); 2.50 in data set [6]; 1.37 in data set [7] (setting [9]); 0.70 in data set [7] (setting [10]). Moreover, the entries for the “Time when compound is affected” value in data set [5] and in data set [6] were “After 4 hours” and “After 6 hours”, respectively. Further, the “Number of times” value in data set [7] is reported as 4 times.
